Laboratory results from article PMC11901765, “Discovery of N-(2-Acetamidobenzo[d]thiazol-6-yl)-2-phenoxyacetamide Derivatives as Novel Potential BCR-ABL1 Inhibitors Through Structure-Based Virtual Screening” (Molecules, 2025).
Like-named read-outs stand apart in the source and are kept apart here. One block for each molecule: values may come before it.

Assays:
[1] = tested on: Ba/F3 (BCR-ABL1) cells; test: CCK-8 viability assay, Ba/F3 (BCR-ABL1) cells; format: cell-based; conditions: for Ba/F3 (BCR-ABL1) Inhibition (%): measured at 10 μM; for Ba/F3 (BCR-ABL1) Inhibition (%) / IC50 / GI50: mean ± SD; for IC50: Table 3; for GI50: Mus musculus, BaF3, CCK8 kit
Procedure: (§1) Cell viability was assessed using the Cell Counting Kit-8 (CCK-8) assay. […] After 72 h of incubation, 10 μL of CCK-8 reagent was added to each well, and the plates were further incubated for 2–4 h. Absorbance was measured at 450 nm using a microplate reader. Dose-response curves were generated and analyzed using GraphPad Prism 8 (version 8.4.3.686).

[2] = tested on: parental Ba/F3 cells; test: CCK-8 viability assay, parental Ba/F3 cells; format: cell-based; conditions: mean ± SD; for IC50: Table 3; for GI50: CCK8 kit
Procedure: as §1

[3] = tested on: Ba/F3 (BCR-ABL^T315I) cells; test: CCK-8 viability assay, Ba/F3 (BCR-ABL^T315I) cells; format: cell-based; conditions: Table 3; mean ± SD
Procedure: as §1

[4] = tested on: MV411; test: CCK-8 viability assay, MV411 cells; format: cell-based
Procedure: as §1

[5] = tested on: HL60; test: CCK-8 viability assay, HL60 cells; format: cell-based
Procedure: as §1

[6] = tested on: K562 cells; test: CCK-8 viability assay, K562 cells; format: cell-based; conditions: 72 h; read-out: GI50 (IC50) K562 cells
Procedure: Cell viability was assessed using the Cell Counting Kit-8 (CCK-8) assay. Cells were seeded in 96-well plates at a density of 10,000 cells per well in RPMI 1640 medium. Test compounds were prepared by serially diluting stock solutions 3-fold in DMSO to generate an eight-point concentration gradient (100 μM to 0.045 μM), followed by addition to the cultured cells. After 72 h of incubation, 10 μL of CCK-8 reagent was added to each well, and the plates were further incubated for 2–4 h. Absorbance was measured at 450 nm using a microplate reader. Dose-response curves were generated and analyzed using GraphPad Prism 8 (version 8.4.3.686).

[7] = tested on: K562 cells; test: Synergy study with asciminib (CCK-8, SynergyFinder 3.0, ZIP model); format: cell-based
Procedure: The drug combination effects were quantified as percentage inhibition of cell viability. The experimental data were analyzed using SynergyFinder 3.0, with a four-parameter logistic regression (LL4) model selected for curve fitting and data analysis. The Synergy Score based on the ZIP (Zero Interaction Potency) model is used to evaluate the synergistic effects of drug combinations.

[8] = tested on: BCR-ABL-dependent signaling (p-ABL1, p-STAT5, p-CRKL) in K562 cells; test: Western blot of BCR-ABL-dependent signaling; format: cell-based; conditions: 3.3 and 10 μM, 1 h
Procedure: Western blot analysis was conducted following established protocols. K562 cells were treated with varying concentrations of the test compound for 60 min, followed by protein extraction using RIPA buffer. Protein quantification was performed using bicinchoninic acid assay, and 30–60 μg of protein samples were resolved by 10% sodium dodecyl sulfate-polyacrylamide gel electrophoresis before being transferred onto nitrocellulose membranes. Membranes were probed with primary antibodies overnight at 4 °C. Following incubation with horseradish peroxidase (HRP)-conjugated secondary antibodies (Thermo Scientific, Waltham, MA, USA), protein bands were detected using a chemiluminescent HRP substrate (Millipore Corporation, #WBKLS0500, Billerica, MA, USA) and imaged with a Syngene GeneGnome-XRQ-NPC imager (Synoptics, Britain). Quantitative analysis was performed by measuring band intensity using ImageJ (version 1.43) software. The following primary antibodies were used: c-Abl (ABclonal, #A0282, Woburn, MA, USA), phosphor-c-Abl (ABclonal, #AP0001), STAT5 (ABclonal, #A5029), phosphor-STAT5 (ABclonal, #AP0887), CRKL (ABclonal, #A11735), and phospho-CRKL (ABclonal, #AP0824).

[9] = tested on: K562 cells; test: Apoptosis assay (Annexin V/PI flow cytometry); conditions: 10m 10 μM, asciminib 5 μM, 48 or 72 h
Procedure: Cell apoptosis was evaluated through Annexin V and propidium iodide (PI) dual staining using an Annexin V-FITC Apoptosis Detection Kit (Vazyme, #A211-02, Nanjing, China) following the manufacturer’s protocol.

[10] = Table 3, mean ± SD, read-out: IC50 MV411
[11] = Table 3, mean ± SD, read-out: IC50 HL60

Molecule: N-(2-Acetamidobenzo[d]thiazol-6-yl)-2-(2-fluorophenoxy)acetamide [Compound 10g]
Ba/F3 (BCR-ABL1) Inhibition (%) [1]: 65 ± 3%

IC50 [1]: 0.63 ± 0.1 µM
IC50 [3]: 25.2 ± 1.1 µM
IC50 [4, 10]: > 100 µM
IC50 [5, 11]: 54.2 ± 5.5 µM
IC50 [6]: 0.98 µM
Molecule: N-(2-Acetamidobenzo[d]thiazol-6-yl)-2-(3,4-dichlorophenoxy)acetamide [Compound 10m]
Ba/F3 (BCR-ABL1) Inhibition (%) [1]: 93 ± 5%
IC50 [2]: > 100 µM
effect in combination with asciminib (in words) [7]: powerful synergistic activity
inhibition of BCR-ABL-dependent signaling pathway (in words) [8]: potently inhibited
apoptosis induction (in words) [9]: significantly induced apoptosis

GI50 [1]: 3.9 ± 0.5 µM
Molecule: Cc1ccc(S(=O)(=O)Nc2nc3ccc(NC(=O)COc4ccccc4)cc3s2)cc1 [Compound A15]
GI50 ([2]; Mus musculus, BaF3): 42.9 ± 10.4 µM

GI50 [1]: 10.7 ± 2.6 µM
Molecule: CCC(=O)Nc1nc2ccc(NC(=O)COc3ccccc3)cc2s1 [Compound A12]
GI50 ([2]; Mus musculus, BaF3): > 100 µM

Molecule: N-(2-Acetamidobenzo[d]thiazol-6-yl)-2-(4-fluorophenoxy)acetamide [Compound 10i]
Ba/F3 (BCR-ABL1) Inhibition (%) [1]: 58 ± 2%

Molecule: N-(2-Acetamidobenzo[d]thiazol-6-yl)-2-(3-fluorophenoxy)acetamide [Compound 10h]
Ba/F3 (BCR-ABL1) Inhibition (%) [1]: 61 ± 5%

Molecule: N-(2-Acetamidobenzo[d]thiazol-6-yl)-2-(3-chlorophenoxy)acetamide [Compound 10k]
Ba/F3 (BCR-ABL1) Inhibition (%) [1]: 60 ± 6%

Molecule: N-(2-Acetamidobenzo[d]thiazol-6-yl)-2-(m-tolyloxy)acetamide [Compound 10t]
Ba/F3 (BCR-ABL1) Inhibition (%) [1]: 28 ± 5%

Molecule: N-(2-Acetamidobenzo[d]thiazol-6-yl)-2-phenoxyacetamide [Compound 10a]
Ba/F3 (BCR-ABL1) Inhibition (%) [1]: 52 ± 5%

GI50 [1]: 6.4 ± 1.6 µM
Molecule: CCC(=O)Nc1nc2ccc(NC(=O)COc3ccc(Cl)cc3)cc2s1 [Compound A8]
inhibition of Ba/F3 (BCR-ABL1) cells (in words) ([1]; 10 μM): showed inhibition potency
GI50 ([2]; Mus musculus, BaF3): > 100 µM

Molecule: N-(2-Acetamidobenzo[d]thiazol-6-yl)-2-(o-tolyloxy)acetamide [Compound 10s]
Ba/F3 (BCR-ABL1) Inhibition (%) [1]: 22 ± 2%

Molecule: Cc1ccc(NC(=O)c2ccc(CN3CCN(C)CC3)cc2)cc1Nc1nccc(-c2cccnc2)n1 [Imatinib, imatinib, reference compound]
effect in combination with asciminib (in words) [7]: antagonistic effect

GI50 [1]: 1.2 ± 0.2 µM
Molecule: CS(=O)(=O)Nc1nc2ccc(NC(=O)COc3ccccc3)cc2s1 [Compound A14]
GI50 ([2]; Mus musculus, BaF3): 37.6 ± 5.7 µM

GI50 [1]: 19.5 ± 4.7 µM
Molecule: O=C(COc1ccccc1)Nc1ccc2nc(NC(=O)c3ccccc3)sc2c1 [Compound A13]
GI50 ([2]; Mus musculus, BaF3): > 100 µM

IC50 [1]: 2.2 ± 0.5 µM
IC50 [3]: > 100 µM
IC50 [4, 10]: > 100 µM
IC50 [5, 11]: > 100 µM
IC50 [6]: 2.7 µM
Molecule: N-(2-Acetamidobenzo[d]thiazol-6-yl)-2-(naphthalen-2-yloxy)acetamide [Compound 10f]
Ba/F3 (BCR-ABL1) Inhibition (%) [1]: 88 ± 2%
IC50 [2]: > 100 µM

Molecule: O=C(Nc1ccc(OC(F)(F)Cl)cc1)c1cnc(N2CC[C@@H](O)C2)c(-c2cc[nH]n2)c1 [Asciminib, reference compound]
GI50 ([2]; Mus musculus, BaF3): > 100 µM
IC50 ([2]; Mus musculus, BaF3): > 100 µM
IC50 ([4]; Homo sapiens, MV4-11, read-out: IC50 MV411): > 100 µM
IC50 ([5]; Homo sapiens, HL-60, read-out: IC50 HL60): > 100 µM
apoptosis induction (in words) [9]: significantly induced apoptosis

Molecule: N-(2-Acetamidobenzo[d]thiazol-6-yl)-2-(4-chlorophenoxy)acetamide [Compound 10l]
Ba/F3 (BCR-ABL1) Inhibition (%) [1]: 71 ± 4%

Molecule: N-(2-Acetamidobenzo[d]thiazol-6-yl)-2-(2-chlorophenoxy)acetamide [Compound 10j]
Ba/F3 (BCR-ABL1) Inhibition (%) [1]: 68 ± 2%
